Experimental data published in patent publication US20200347153A1, “METHODS FOR FORMING INCLUSION COMPLEXES WITH HYDROPHILIC BETA-CYCLODEXTRIN DERIVATIVES AND COMPOSITIONS THEREOF” (priority 2019, published 2020).
Like-named read-outs stand apart in the source and are kept apart here. Each block holds one compound with its values, some of them ahead of it.

Experiments:
[1] = Stability studies (shelf life, visible changes); assay type: physicochemical
Procedure: The effects of HPBCD on the shelf life stability of each active agent is studied at pre-determined temperatures for 11 weeks. Real time stability is observed at −17° C., 5° C. and 25° C., and accelerated stability is observed at 40° C. For accelerated stability, one day at 40° C. is equivalent to one week, thus the data represents 77 weeks. […] The vials are then placed in a temperature-controlled oven or refrigerator/freezer. The compounds are checked daily and any visible changes are noted.

[2] = Solubility in water (statements); assay type: physicochemical
[3] = Phase solubility studies; conditions: active with HPBCD; calculated using Eq. (1)
[4] = room temperature; cited from earlier work
[5] = 25° C., Week 1, visible changes
[6] = 25° C., Week 2, visible changes
[7] = 25° C., Week 3, visible changes
[8] = 25° C., Week 4, visible changes
[9] = 25° C., Week 5, visible changes
[10] = 25° C., Week 6, visible changes
[11] = 25° C., Week 7, visible changes
[12] = 25° C., Week 8, visible changes
[13] = 25° C., Week 9, visible changes
[14] = 25° C., Week 10, visible changes
[15] = 25° C., Week 11, visible changes
[16] = 40° C. accelerated stability, Week 1, visible changes

Stability of Actives at 5° C. ([1]; 5° C., Week 1, visible changes): 0
Stability of Actives at 5° C. ([1]; 5° C., Week 2, visible changes): 0
Stability of Actives at 5° C. ([1]; 5° C., Week 3, visible changes): 0
Stability of Actives at 5° C. ([1]; 5° C., Week 4, visible changes): 0
Stability of Actives at 5° C. ([1]; 5° C., Week 5, visible changes): 0
Stability of Actives at 5° C. ([1]; 5° C., Week 6, visible changes): 0
Stability of Actives at 5° C. ([1]; 5° C., Week 7, visible changes): 0
Stability of Actives at 5° C. ([1]; 5° C., Week 8, visible changes): 0
Stability of Actives at 5° C. ([1]; 5° C., Week 9, visible changes): 0
Stability of Actives at 5° C. ([1]; 5° C., Week 10, visible changes): 0
Stability of Actives at 5° C. ([1]; 5° C., Week 11, visible changes): 0
Stability of Actives at 25° C. [1, 5]: 0
Stability of Actives at 25° C. [1, 6]: 0
Stability of Actives at 25° C. [1, 7]: 0
Stability of Actives at 25° C. [1, 8]: 0
Stability of Actives at 25° C. [1, 9]: 0
Stability of Actives at 25° C. [1, 10]: 0
Stability of Actives at 25° C. [1, 11]: 0
Stability of Actives at 25° C. [1, 12]: 0
Stability of Actives at 25° C. [1, 13]: 0
Stability of Actives at 25° C. [1, 14]: 0
Stability of Actives at 25° C. [1, 15]: 0
Stability of Actives at 40° C. [1, 16]: 0
Stability of Actives at 40° C. ([1]; 40° C. accelerated stability, Week 2, visible changes): 0
Stability of Actives at 40° C. ([1]; 40° C. accelerated stability, Week 3, visible changes): 0
Stability of Actives at 40° C. ([1]; 40° C. accelerated stability, Week 4, visible changes): 0
Stability of Actives at 40° C. ([1]; 40° C. accelerated stability, Week 5, visible changes): 0
Stability of Actives at 40° C. ([1]; 40° C. accelerated stability, Week 6, visible changes): 0
Stability of Actives at 40° C. ([1]; 40° C. accelerated stability, Week 7, visible changes): 0
Stability of Actives at 40° C. ([1]; 40° C. accelerated stability, Week 8, visible changes): 0
Stability of Actives at 40° C. ([1]; 40° C. accelerated stability, Week 9, visible changes): 0
Stability of Actives at 40° C. ([1]; 40° C. accelerated stability, Week 10, visible changes): 0
Stability of Actives at 40° C. ([1]; 40° C. accelerated stability, Week 11, visible changes): 0
SMILES: Nc1cc(N2CCCCC2)nc(N)[n+]1[O-] [Minoxidil]

Stability of Actives at 5° C. ([1]; 5° C., Week 1, visible changes): 0
Stability of Actives at 25° C. [1, 5]: 0
Stability of Actives at 25° C. [1, 6]: 0
Stability of Actives at 25° C. [1, 7]: 0
Stability of Actives at 25° C. [1, 8]: 0
Stability of Actives at 25° C. [1, 9]: 0
Stability of Actives at 25° C. [1, 10]: 0
Stability of Actives at 25° C. [1, 11]: 0
Stability of Actives at 25° C. [1, 12]: 0
Stability of Actives at 25° C. [1, 13]: 0
Stability of Actives at 25° C. [1, 14]: 0
Stability of Actives at 25° C. [1, 15]: 0
Stability of Actives at 40° C. [1, 16]: 0
solubility in water [2]: strong water solubility
association constant (Kc) for complex formation [3]: 0.79856 M⁻¹
SMILES: NC(=O)c1cccnc1 [Niacinamide]

Stability of Actives at 5° C. ([1]; 1 week): 0
Stability of Actives at 25° C. ([1]; 1 week): 0
Stability of Actives at 40° C. ([1]; 1 week): 0
Stability of Actives at −17 C. ([1]; 1 week): 0
Stability of Actives at 5° C. ([1]; 2 week): 0
Stability of Actives at 25° C. ([1]; 2 week): 0
Stability of Actives at 40° C. ([1]; 2 week): 0
Stability of Actives at −17 C. ([1]; 2 weeks): 0
Stability of Actives at 5° C. ([1]; 3 week): 0
Stability of Actives at 25° C. ([1]; 3 week): 0
Stability of Actives at 40° C. ([1]; 3 week): 0
Stability of Actives at −17 C. ([1]; 3 weeks): 0
Stability of Actives at 5° C. ([1]; 4 week): 0
Stability of Actives at 25° C. ([1]; 4 week): 0
Stability of Actives at 40° C. ([1]; 4 week): 0
Stability of Actives at −17 C. ([1]; 4 weeks): 0
Stability of Actives at 5° C. ([1]; 5 week): 0
Stability of Actives at 25° C. ([1]; 5 week): 0
Stability of Actives at 40° C. ([1]; 5 week): 0
Stability of Actives at −17 C. ([1]; 5 week): 0
Stability of Actives at 5° C. ([1]; 6 week): 0
Stability of Actives at 25° C. ([1]; 6 week): 0
Stability of Actives at 40° C. ([1]; 6 week): 0
Stability of Actives at −17 C. ([1]; 6 week): 0
Stability of Actives at 5° C. ([1]; 7 week): 0
Stability of Actives at 25° C. ([1]; 7 week): 0
Stability of Actives at 40° C. ([1]; 7 week): 0
Stability of Actives at −17 C. ([1]; 7 week): 0
Stability of Actives at 5° C. ([1]; 8 week): 0
Stability of Actives at 25° C. ([1]; 8 week): 0
Stability of Actives at 40° C. ([1]; 8 week): 0
Stability of Actives at −17 C. ([1]; 8 week): 0
Stability of Actives at 5° C. ([1]; 9 week): 0
Stability of Actives at 25° C. ([1]; 9 week): 0
Stability of Actives at 40° C. ([1]; 9 week): 0
Stability of Actives at −17 C. ([1]; 9 week): 0
Stability of Actives at 5° C. ([1]; 10 week): 0
Stability of Actives at 25° C. ([1]; 10 week): 0
Stability of Actives at 40° C. ([1]; 10 week): 0
Stability of Actives at −17 C. ([1]; 10 weeks): 0
Stability of Actives at 5° C. ([1]; 11 week): 0
Stability of Actives at 25° C. ([1]; 11 week): 0
Stability of Actives at 40° C. ([1]; 11 week): 0
Stability of Actives at −17 C. ([1]; 11 weeks): 0
SMILES: COc1cc(CCC(=O)CC(=O)CCc2ccc(O)c(OC)c2)ccc1O [Tetrahydrocurcumin]

SMILES: OC[C@H]1O[C@@H]2O[C@H]3[C@H](O)[C@@H](O)[C@@H](O[C@H]4[C@H](O)[C@@H](O)[C@@H](O[C@H]5[C@H](O)[C@@H](O)[C@@H](O[C@H]6[C@H](O)[C@@H](O)[C@@H](O[C@H]7[C@H](O)[C@@H](O)[C@@H](O[C@H]8[C@H](O)[C@@H](O)[C@@H](O[C@H]1[C@H](O)[C@H]2O)O[C@@H]8CO)O[C@@H]7CO)O[C@@H]6CO)O[C@@H]5CO)O[C@@H]4CO)O[C@@H]3CO [β-Cyclodextrin]
solubility in water [4]: approximately 19 mg/mL
